Assay results reported in US20240285551A1, “A SMALL MOLECULE TNF-a INHIBITOR AND PREPARATION METHOD AND USE THEREOF” (FUDAN UNIVERSITY, priority 2021, published 2024).

Legend:
[1] = tested on: TNF-α; test: release of the inflammatory factor TNF-α by LPS induced macrophages (RAW264.7), RT-PCR; format: cell-based; conditions: Mus musculus, RAW264.7, LPS 1 μg/ml, 24 hours, read-out: IC50 with respect to the release of the inflammatory factor TNF-α
Procedure: LPS (1 μg/ml) and different concentrations of (±)-STU104 or (R)-STU104 (0.1 to 50 μM) were added respectively after the cells grew to a fused state, and incubated together at 37° C. under 5% CO2 for 24 hours. A blank control group was established, and RT-PCR was employed to detect the inhibition states of TNF-α in cells by these compounds.

[2] = tested on: Mnk1, MK2, and elF4E in the p38 signaling pathway; test: western blotting of phosphorylation of p38 signaling pathway proteins in LPS induced RAW264.7 cells; format: cell-based; conditions: RAW264.7, 3.125, 6.25 and 12.5 μM, LPS 500 μg/L
From the text: (§1) To further clarify the inhibitory mechanism of (R)-STU104 on TNF-α release, we detected the effects of (R)-STU104 on phosphorylation levels of proteins related to the p38 signaling pathway (see FIG. 2). The p38 inhibitor (SB203580) was used as a positive control, and western blotting was used to detect protein expression levels.

[3] = tested on: TAK1; test: western blotting of TAK1 phosphorylation (upstream kinase of MKK3); format: cell-based
From the text: as §1

[4] = tested on: DSS induced acute ulcerative colitis model in C57 mice; test: DSS induced acute ulcerative colitis in C57 mice (body weight, DAI, colon length, H&E pathology); format: in vivo; conditions: gavage once a day
Procedure: (§2) Except for the normal group, all other groups of mice were allowed to freely drink a 3% DSS solution which was freshly prepared and replaced the next day (wherein the 3% DSS solution was prepared by weighing 3 g of a DSS powder (from MP Biomedicals, USA with a molecular weight of 36,000 to 50,000) and fully dissolving it in 100 mL of the drinking water for the mice); whereas the normal group was given blank drinking water; the control group mice drank water normally for 7 days, while the DSS group mice drank the 3% DSS solution freely for 7 days and were administrated for 6 days from the second day DSS was given. The mice were administered by gavage once a day with a volume of 10 mL/kg, wherein the normal control group and DSS group were gavaged with a solvent of 0.5% CMC-Na (wherein a 0.5% CMC-Na solution is at a concentration of 0.5 g/100 mL, the same below), while the other groups were separately gavaged with drugs dissolved in 0.5% CMC-Na.
The normal control group mice were vivacious with glossy fur, stable weight gain, and normal stools appearing elliptical or spindle shaped.
In order to further evaluate the disease development for each group of acute UC mice, we performed DAI scoring on the loose and bloody stools etc. for each mouse (see panel B1 in FIG. 3). […] As the experiment progressed, the disease became gradually worsened, with some animals experiencing severe bloody stools and significant emaciation.
(§3) After dissection, the colon of each mouse was taken and the length of the colon was measured separately.

[5] = tested on: TNF-α; test: serum TNF-α protein by ELISA, DSS acute UC mice; format: in vivo; conditions: 10 mg/kg
Procedure: as §2
(§4) To investigate the effects of compounds (R)-STU104, (S)-STU104, and (±)-STU104 on the secretion of such inflammatory factors as TNF-α, IL-1β, IL-6, and IL-23 by mice of the DSS induced acute ulcerative colitis model in C57 mice, we isolated serum after blood acquisition and detected the contents of such inflammatory factors as TNF-α, IL-1β, IL-6, and IL-23 in the serum of mice using ELISA.

[6] = tested on: IL-1β; test: serum IL-1β protein by ELISA, DSS acute UC mice; format: in vivo; conditions: 10 mg/kg
Procedure: as §2

[7] = tested on: IL-6; test: serum IL-6 protein by ELISA, DSS acute UC mice; format: in vivo; conditions: 10 mg/kg
Procedure: as §2, §4

[8] = tested on: IL-23; test: serum IL-23 protein by ELISA, DSS acute UC mice; format: in vivo; conditions: 10 mg/kg
Procedure: as §2, §4

[9] = tested on: TNF-α; test: colon tissue TNF-α mRNA by qPCR, DSS acute UC mice; format: in vivo; conditions: 10 mg/kg
Procedure: as §2
(§5) After dissection, a segment of the colon was taken from the same part of each mouse, total RNAs were extracted from tissues, and mRNA expressions of such inflammatory factors as TNF-α, IL-1β, IL-6, and IL-23 in colon tissues of the mice were detected through qPCR.

[10] = tested on: IL-1β; test: colon tissue IL-1β mRNA by qPCR, DSS acute UC mice; format: in vivo; conditions: 10 mg/kg
Procedure: as §2, §5

[11] = tested on: IL-6; test: colon tissue IL-6 mRNA by qPCR, DSS acute UC mice; format: in vivo; conditions: 10 mg/kg
Procedure: as §2, §5

[12] = tested on: IL-23; test: colon tissue IL-23 mRNA by qPCR, DSS acute UC mice; format: in vivo; conditions: 10 mg/kg
Procedure: as §2, §5

[13] = tested on: chronic ulcerative colitis model in IL-10 whole gene knockout mice; test: chronic ulcerative colitis in IL-10 whole gene knockout mice (survival, body weight, colon length, H&E pathology); format: in vivo
Procedure: (§6) Ten C57 mice (aged 10-12 weeks, around 20 g) with an identified genotype of Wildtype were taken as the normal control group. […] The mice were administered by gavage once a day with a volume of 10 mL/kg, wherein the normal control group and DSS group were gavaged with a solvent of 0.5% CMC-Na while the other groups were separately gavaged with drugs dissolved in 0.5% CMC-Na.
as §3

[14] = tested on: TNF-α; test: serum TNF-α protein by ELISA, IL-10 knockout chronic UC mice; format: in vivo
Procedure: as §6
(§7) To investigate the effects of (R)-STU104 on the secretion of such inflammatory factors as TNF-α, IL-1β, IL-6, and IL-23 by spontaneous IBD mice due to IL-10 knockout, we isolated serum after blood acquisition and detected the contents of such inflammatory factors as TNF-α, IL-1β, IL-6, and IL-23 in the serum of mice using ELISA.

[15] = tested on: IL-1β; test: serum IL-1β protein by ELISA, IL-10 knockout chronic UC mice; format: in vivo
Procedure: as §6, §7

[16] = tested on: IL-6; test: serum IL-6 protein by ELISA, IL-10 knockout chronic UC mice; format: in vivo
Procedure: as §6, §7

[17] = tested on: IL-23; test: serum IL-23 protein by ELISA, IL-10 knockout chronic UC mice; format: in vivo
Procedure: as §6, §7

[18] = tested on: TNF-α; test: colon tissue TNF-α mRNA by qPCR, IL-10 knockout chronic UC mice; format: in vivo
Procedure: as §6, §5

[19] = tested on: IL-1β; test: colon tissue IL-1β mRNA by qPCR, IL-10 knockout chronic UC mice; format: in vivo
Procedure: as §6, §5

[20] = tested on: IL-6; test: colon tissue IL-6 mRNA by qPCR, IL-10 knockout chronic UC mice; format: in vivo
Procedure: as §6, §5

[21] = tested on: IL-23; test: colon tissue IL-23 mRNA by qPCR, IL-10 knockout chronic UC mice; format: in vivo
Procedure: as §6, §5

[22] = positive drug group, dose not given

COc1ccc([C@H]2CC(=O)c3cc(OC)cc(OC)c32)cc1 [(R)-STU104, 4,6-dimethoxy-3R-(4-methoxyphenyl)-2,3-dihydro-1H-indanone]
IC50 [1]: 580 nM | phosphorylation of key proteins Mnk1, MK2, and elF4E in the p38 signaling pathway [2]: inhibiting, in a concentration dependent manner | phosphorylation of TAK1 [3]: no inhibition | colon length recovery rate (inhibition of colon shortening) ([4]; 10 mg/kg): 34.6% | recovery rate of colon pathological sections (H&E) ([4]; 10 mg/kg): 65.6% | DAI score inhibition ratio ([4]; 10 mg/kg, day 7): 29.3% | body weight recovery rate ([4]; 10 mg/kg, day 7): 22.4% | inhibition ratio of TNF-α protein content in serum [5]: 55.4% | inhibition ratio of IL-1β protein content in serum [6]: 70.1% | inhibition ratio of IL-6 protein content in serum [7]: 71.5% | inhibition ratio of IL-23 protein content in serum [8]: 56.7% | inhibition ratio of TNF-α mRNA in colon tissues [9]: 64.8% | inhibition ratio of IL-1β mRNA in colon tissues [10]: 68.3% | inhibition ratio of IL-6 mRNA in colon tissues [11]: 65.0% | inhibition ratio of IL-23 mRNA in colon tissues [12]: 84.8% | efficiency of weight gain (body weight recovery) ([13]; high-dose group (10 mg/kg)): 19.4% | inhibition ratio of colon shortening ([13]; high-dose group (10 mg/kg)): 41.2% | recovery rate of colon pathological sections (H&E) ([13]; high-dose group (10 mg/kg)): 56.7% | total mortality rate ([13]; high-dose group (10 mg/kg), gavage once a day): no deaths occurred | efficiency of weight gain (body weight recovery) ([13]; low-dose group (1 mg/kg)): 13.6% | inhibition ratio of colon shortening ([13]; low-dose group (1 mg/kg)): 17.7% | recovery rate of colon pathological sections (H&E) ([13]; low-dose group (1 mg/kg)): 33.0% | total mortality rate ([13]; low-dose group (1 mg/kg), gavage once a day): 20% | efficiency of weight gain (body weight recovery) ([13]; medium-dose group (3 mg/kg)): 14.8% | inhibition ratio of colon shortening ([13]; medium-dose group (3 mg/kg)): 29.4% | recovery rate of colon pathological sections (H&E) ([13]; medium-dose group (3 mg/kg)): 50.5% | total mortality rate ([13]; medium-dose group (3 mg/kg), gavage once a day): no deaths occurred | inhibition ratio of TNF-α protein content in serum ([14]; high dose (10 mg/kg)): 61.9% | inhibition ratio of TNF-α protein content in serum ([14]; low dose (1 mg/kg)): 40.2% | inhibition ratio of TNF-α protein content in serum ([14]; medium dose (3 mg/kg)): 60.3% | inhibition ratio of IL-1β protein content in serum ([15]; high dose (10 mg/kg)): 51.8% | inhibition ratio of IL-1β protein content in serum ([15]; low dose (1 mg/kg)): 40.1% | inhibition ratio of IL-1β protein content in serum ([15]; medium dose (3 mg/kg)): 50.0% | inhibition ratio of IL-6 protein content in serum ([16]; high dose (10 mg/kg)): 57.6% | inhibition ratio of IL-6 protein content in serum ([16]; low dose (1 mg/kg)): 34.4% | inhibition ratio of IL-6 protein content in serum ([16]; medium dose (3 mg/kg)): 44.5% | inhibition ratio of IL-23 protein content in serum ([17]; high dose (10 mg/kg)): 64.4% | inhibition ratio of IL-23 protein content in serum ([17]; low dose (1 mg/kg)): 39.6% | inhibition ratio of IL-23 protein content in serum ([17]; medium dose (3 mg/kg)): 58.2% | inhibition ratio of TNF-α mRNA in colon tissues ([18]; high dose (10 mg/kg)): 68.5% | inhibition ratio of TNF-α mRNA in colon tissues ([18]; low dose (1 mg/kg)): 24.7% | inhibition ratio of TNF-α mRNA in colon tissues ([18]; medium dose (3 mg/kg)): 69.5% | inhibition ratio of IL-1β mRNA in colon tissues ([19]; high dose (10 mg/kg)): 43.8% | inhibition ratio of IL-1β mRNA in colon tissues ([19]; low dose (1 mg/kg)): 22.8% | inhibition ratio of IL-1β mRNA in colon tissues ([19]; medium dose (3 mg/kg)): 36.1% | inhibition ratio of IL-6 mRNA in colon tissues ([20]; high dose (10 mg/kg)): 48.6% | inhibition ratio of IL-6 mRNA in colon tissues ([20]; low dose (1 mg/kg)): 26.3% | inhibition ratio of IL-6 mRNA in colon tissues ([20]; medium dose (3 mg/kg)): 37.1% | inhibition ratio of IL-23 mRNA in colon tissues ([21]; high dose (10 mg/kg)): 58.2% | inhibition ratio of IL-23 mRNA in colon tissues ([21]; low dose (1 mg/kg)): 31.0% | inhibition ratio of IL-23 mRNA in colon tissues ([21]; medium dose (3 mg/kg)): 51.7%

Nc1ccc(O)c(C(=O)O)c1 [mesalazine, reference compound]
colon length recovery rate (inhibition of colon shortening) ([4]; 50 mg/kg): 26.4% | recovery rate of colon pathological sections (H&E) ([4]; 50 mg/kg): 38.0% | body weight recovery rate ([4]; 50 mg/kg, day 7): 7% | recovery rate of colon pathological sections (H&E) [13, 22]: 44.3% | total mortality rate [13, 22]: no deaths occurred
